Here are results for seven compounds from US20120132594A1, “AQUEOUS SOLVENTS FOR HYDROCARBONS AND OTHER HYDROPHOBIC COMPOUNDS” (IMPERIAL INNOVATIONS LIMITED, priority 2009, published 2012).

This data set can be described thus: Extraction of organic standards from spiked JSC-1 rock with aqueous polysorbate 80 solution, GC-MS. In kind it is physicochemical. To be noted: ultrasonication 20 minutes. The method, then: JSC-1, a Martian and lunar analogue (McKay et al. (1993) JSC-1: A new lunar regolith simulant. Lunar and Planetary Institute Conference Abstracts), was spiked with various hydrocarbon compound classes (Table 1 below). All are known to be soluble in organic solvents, and are considered mostly insoluble in water with the exception of atrazine. 1 ml of a mixture of 10.0 ng ml^−1 hydrocarbon standards were spiked on to 1 g of rock, the concentrations of each non-aromatic standard amounted to 10.0 ng g^−1 rock (10 ppb). Terphenyl (an aromatic compound) was used as a second quantitation standard, added just before analysis in order to establish extraction efficiencies for the JSC-1 rock.
1 g samples of spiked JSC-1 rock were placed in test tubes, with 3 ml solvent and the mixture subjected to ultrasonication (20 minutes). The solvent was an aqueous surfactant solution containing polysorbate 80 in various amounts (either 1.5 g/L or 2.5 g/L), as set out in Table 1 below. The surfactant was dissolved either in water that contains 20% methanol (referred to in Table 1 as “w MeOH”) or pure water (“w/o MeOH”). After sonication the mixture was centrifuged (2500 rpm×10 min) and the supernatant pipetted into a test tube. A liquid/liquid extraction was then performed with dichloromethane, the dichloromethane was then blown down via nitrogen to 1 ml ready for further analysis by gas chromatography-mass spectrometry.
The organic constituents of extracts were separated on an Agilent technologies 6890N gas chromatograph. Extracts were dissolved in 1 ml dichloromethane and 1 μl was introduced via splitless injection into a HP-5 (0.25 mm×30 m×[…]) capillary column in a helium carrier gas. The column oven was operated with a temperature programme starting at 50° C. for 1 min followed by a ramp of 5° C. min−1 until 310° C. where the temperature was held for 20 min. Individual compounds were identified by introducing the column effluent into an Agilent technologies 5973 inert mass selective detector operated with a 12 min solvent delay and a scan range of m/z 50-550.
The extraction efficiency is measured as the percentage of the organic compounds that are extracted as compared to the amount originally present in the rock. […] Other variables include temperature and pressure. As can also be seen from Table 1, the optimum recovery appears to take place between about 0.5 an 3 grams per litre of polysorbate 80, which corresponds to 40 to 230 times the cmc of polysorbate 80.

Setting [1] is: polysorbate 80 1.5 g/L, with MeOH (water containing 20% methanol).
Setting [2] is: polysorbate 80 1.5 g/L, without MeOH (pure water).
The mark [3] stands for this setting: polysorbate 80 2.5 g/L, with MeOH (water containing 20% methanol).
Setting [4] is: polysorbate 80 2.5 g/L, without MeOH (pure water).

Regarding `CCNc1nc(Cl)nc(NC(C)C)n1` [Atrazine], the Extraction efficiency under setting [1] was found to be 7.35%, the Extraction efficiency under setting [2] was found to be 12.6%, the Extraction efficiency under setting [3] is 5.4% and the Extraction efficiency under setting [4] was found to be 5.62%.
On to `CCCCCCCCCCCCCCCC` [Hexadecane], for which the Extraction efficiency by setting is: under setting [1], 4.21%; under setting [2], 14.2%; under setting [3], 0.54%; under setting [4], 0.73%.
In the same order, the values of `CCC(C)CCCC(C)CCCC(C)CCCC(C)C` (stereo not shown) [Phytane] are 8.91%, 29.08%, 0.93% and 10.7%.
In the case of `CC[C@H](/C=C/[C@@H](C)[C@H]1CC[C@H]2[C@@H]3CC=C4C[C@@H](O)CC[C@]4(C)[C@H]3CC[C@]12C)C(C)C` [Stigmasterol], the Extraction efficiency was found to be 0% under setting [1], 0% under setting [2], 3.06% under setting [3] and 10.88% under setting [4].
For the compound `CC(C)=CCC/C(C)=C/CC/C(C)=C/CC/C=C(\C)CC/C=C(\C)CCC=C(C)C` [Squalene], the Extraction efficiency is listed as 6.11% under setting [1], 19.71% under setting [2], 0.58% under setting [3] and 9.11% under setting [4].
For the compound `c1ccc2cc3ccccc3cc2c1` [Anthracene], the Extraction efficiency reads like this: under setting [1], 0%; under setting [2], 0%; under setting [3], 5.2%; under setting [4], 22.86%.
In the case of `c1ccc2c(c1)c1cccc3ccc4cccc2c4c31` [Benzo(e)pyrene], the Extraction efficiency came out at 2.38% under setting [1], 0% under setting [2], 20.33% under setting [3] and 30.55% under setting [4].
